Data as given in patent US7166597B2, “Fused pyrazole derivatives being protein kinase inhibitors” (Glaxo Group Limited, priority 2000, dated 2007).
Read-outs that look alike come from different tables or passages of the source.

Legend:
[1] = target: T1, p38 kinase (Homo sapiens, UniProt Q16539); assay: p38 Kinase Assay; assay type: biochemical
T1 construct: GST (N); made in house; host or cells: E. coli
Procedure: The peptide substrate used in the p38 assay was biotin-IPTSPITTTYFFFRRR-amide. The p38 and MEK6 proteins were purified to homogeneity from E. coli expression systems. The fusion proteins were tagged at the N-terminus with Glutathione-S-Transferase (GST). The maximum activation was achieved by incubating 20 uL of a reaction mixture of 30 nM MEK6 protein and 120 nM p38 protein in the presence of 1.5 uM peptide and 10 mM Mg (CH3CO2)2 in 100 mM HEPES7 pH 7.5, added to 15 uL of a mixture of 1.5 uM ATP with 0.08 uCi [g-^33P]ATP, with or without 15 uL of inhibitor in 6% DMSO. The controls were reactions in the presence (negative controls) or absence (positive controls) of 50 mM EDTA. Reactions were allowed to proceed for 60 min at room temperature and quenched with addition of 50 uL of 250 mM EDTA and mixed with 150 uL of Streptavidin SPA beads (Amersham) to 0.5 mg/reaction. The Dynatech Microfluor white U-bottom plates were sealed and the beads were allowed to settle overnight. The plates were counted in a Packard TopCount for 60 seconds. IC50 values were obtained by fitting raw data to % I=100*(1−(I−C2)/(C1−C2)), where I was […], C1 was positive control, and C2 was negative control.

[2] = target: T2, JNK3 kinase (Jnk-3alpha-2) (Homo sapiens, UniProt P53779); assay: JNK3 Kinase Assay; assay type: biochemical
T2 construct: Jnk-3alpha-2 (as a truncated construct, residues 39 to 224) was expressed in E. coli as a GST fusion protein; Following purification the GST portion was removed by thrombin cleavage; fused on or other part: An N-terminal GST tag was used for expression and removed by thrombin cleavage before the assay
Procedure: JNK3 Kinase Assay Jnk-3alpha-2 (as a truncated construct, residues 39 to 224) was expressed in E. coli as a GST fusion protein. Following purification the GST portion was removed by thrombin cleavage. The enzyme was stored at −80° C. Substrate c-Jun was expressed as a GST fusion protein including a signal peptide (biotinylation site) in E. coli. Following purification the substrate was biotinylated on a specific lysine in the signal peptide using biotin ligase. Prior to assay Jnk-3 was pre-activated by incubation with MgATP. The enzyme (10 nM) was screened in 40 mM HEPES (pH 7.4), 150 mM NaCl, 20 mM glycerophosphate, 1 mM DTT, 0.2 mM vanadate, 200 nM biotin-c-Jun, 5 mM MgCl2 and 10 uM ATP. Inhibitors were added over a conc range of from 0 to 10 uM in DMSO (fc 3%). The reaction was stopped by the addition of 25 mM EDTA. Phospho-c-Jun was detected using homogeneous time resolved fluorescence (HTRF) with a Eu-labelled antiphosphoserine (Serine 73) and streptavidin APC.

[3] = Table 8, compounds wherein Z is N, read-out: p38 kinase (inhibition of p38 kinase, IC50)
[4] = Table 8, read-out: JNK3 kinase (inhibition of JNK3 kinase, IC50)
[5] = Table 9, p38 assays using Assay II, read-out: p38 IC50

T1 sequence (Q16539 whole entry): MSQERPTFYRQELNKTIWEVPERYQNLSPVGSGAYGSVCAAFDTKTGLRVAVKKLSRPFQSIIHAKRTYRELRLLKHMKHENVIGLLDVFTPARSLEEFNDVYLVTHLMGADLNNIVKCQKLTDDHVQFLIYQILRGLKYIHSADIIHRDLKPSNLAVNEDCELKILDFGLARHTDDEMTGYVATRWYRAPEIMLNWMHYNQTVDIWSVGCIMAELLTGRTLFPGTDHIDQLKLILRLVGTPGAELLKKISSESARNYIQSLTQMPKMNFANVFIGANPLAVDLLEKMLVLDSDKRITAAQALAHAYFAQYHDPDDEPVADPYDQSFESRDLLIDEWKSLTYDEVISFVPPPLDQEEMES
T2 sequence (P53779 39-402 limits assumed): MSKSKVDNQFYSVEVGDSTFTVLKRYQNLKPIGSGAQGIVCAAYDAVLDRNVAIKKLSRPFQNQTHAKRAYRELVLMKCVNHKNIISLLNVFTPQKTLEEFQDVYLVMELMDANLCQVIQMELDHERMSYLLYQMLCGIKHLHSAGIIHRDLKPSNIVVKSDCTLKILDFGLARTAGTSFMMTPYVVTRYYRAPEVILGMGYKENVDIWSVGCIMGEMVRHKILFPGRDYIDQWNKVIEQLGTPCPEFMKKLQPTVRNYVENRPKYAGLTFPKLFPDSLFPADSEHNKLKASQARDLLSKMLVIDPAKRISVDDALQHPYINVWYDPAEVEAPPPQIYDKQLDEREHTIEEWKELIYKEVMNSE

OCc1ccn2nc(-c3ccc(F)cc3)c(-c3ccncc3)c2c1 [Example 6, 2-(4-Fluorophenyl)-5-hydroxymethyl-3-(4-pyridinyl)pyrazolo[1,5-a]pyridine]
IC50 ([1]; Table 7, compounds wherein Z is CH, read-out: P38 kinase (inhibition of p38 kinase, IC50)): < 500 nM

Fc1ccc(-c2nn3ccccc3c2-c2ccnc(NC3CC3)n2)cc1 [Example 61, N-Cyclopropyl-4-[2-(4-fluorophenyl)pyrazolo[1,5-a]pyridin-3-yl]-2-pyrimidinamine]
IC50 [1, 3]: < 500 nM
IC50 [2, 4]: < 500 nM

Nc1nccc(-c2c(-c3ccc(F)cc3)nn3cc(C(F)(F)F)ccc23)n1 [Example 65, 4-[2-(4-Fluorophenyl)-6-trifluoromethylpyrazolo[1,5-a]pyridin-3-yl]-2-pyrimidinamine]
IC50 [1, 3]: < 500 nM

OCCCNc1nccc(-c2c(-c3ccc(F)cc3)nn3cc(C(F)(F)F)ccc23)n1 [Example 72, 3-(4-[2-(4-Fluorophenyl)-6-trifluoromethylpyrazolo[1,5-a]pyridin-3-yl]-2-pyrimidinylamino)-1-propanol]
IC50 [1, 3]: < 500 nM

NC(=O)c1ccc2c(-c3ccnc(NCCCO)n3)c(-c3ccc(F)cc3)nn2c1 [Example 76, 2-(4-Fluorophenyl)-3-(4-(2-(3-hydroxypropyl)amino)pyrimidinyl)-6-pyrazolo-[1,5-a]pyridinylcarboxamide]
IC50 [1, 3]: < 500 nM

CN1CCN(CCCNc2nccc(-c3c(-c4ccc(F)cc4)nn4cc(C(N)=O)ccc34)n2)CC1 [Example 79, 2-(4-Fluorophenyl)-3-(4-(2-(3-(4-methylpiperazino)propyl)amino)pyrimidinyl)-6-pyrazolo-[1,5-a]pyridinylcarboxamide]
IC50 [1, 3]: < 500 nM

Fc1ccc(-c2nn3cc(C(F)(F)F)ccc3c2-c2ccnc(Oc3ccccc3)n2)cc1 [Example 84, 2-(4-Fluorophenyl)-3-(2-phenoxypyrimidin-4-yl)-6-(trifluoromethyl)pyrazolo[1,5-a]pyridine]
IC50 [1, 3]: < 500 nM
IC50 [2, 4]: < 500 nM

Cc1ccc(C)c(Oc2nccc(-c3c(-c4ccc(F)cc4)nn4cc(C(F)(F)F)ccc34)n2)c1 [Example 86, 3-[2-(2,5-Dimethylphenoxy)pyrimidin-4-yl]-2-(4-fluorophenyl)-6-(trifluoromethyl)pyrazolo[1,5-a]pyridine]
IC50 [1, 3]: < 500 nM
IC50 [2, 4]: < 500 nM

CN(C)CCCNc1nccc(-c2c(-c3ccc(F)cc3)nn3cc(C(F)(F)F)ccc23)n1 [Example 87, N-[3-(dimethylamino)propyl]-N-[4-{2-(4-fluorophenyl)-6-(trifluoromethyl)pyrazolo[1,5-a]pyridin-3-yl}pyrimidin-2-yl]amine]
IC50 [1, 5]: 100 to 1000 nM
IC50 ([2]; Table 9, read-out: JNK3 IC50): 1000 to 10000 nM

CN(C)CCCNc1nccc(-c2c(-c3ccc(C(F)(F)F)cc3)nn3cc(C(F)(F)F)ccc23)n1 [Example 88, N-[3-(dimethylamino)propyl]-N-[4-{6-(trifluoromethyl)-2-[4-(trifluoromethyl)phenyl]pyrazolo[1,5-a]pyridin-3-yl}pyrimidin-2-yl]amine]
IC50 [1, 5]: 1000 to 10000 nM
IC50 ([2]; Table 9, read-out: JNK3 IC50): 1000 to 10000 nM

CN(C)CCCNc1nccc(-c2c(-c3ccc(F)c(Cl)c3)nn3cc(C(F)(F)F)ccc23)n1 [Example 89, N-[4-{2-[3-chloro-4-fluorophenyl]-6-(trifluoromethyl)pyrazolo-[1,5-a]pyridin-3-yl}pyrimidin-2-yl]-N-[3-(dimethylamino)propyl]amine]
IC50 [1, 5]: 10 to 100 nM
IC50 ([2]; Table 9, read-out: JNK3 IC50): 1000 to 10000 nM

CN(C)CCCNc1nccc(-c2c(-c3cccc(Cl)c3)nn3cc(C(F)(F)F)ccc23)n1 [Example 90, N-{4-[2-(3-chlorophenyl)-6-(trifluoromethyl)pyrazolo[1,5-a]pyridin-3-yl]pyrimidin-2-yl}-N-[3-(dimethylamino)propyl]amine]
IC50 [1, 5]: 10 to 100 nM
IC50 ([2]; Table 9, read-out: JNK3 IC50): 1000 to 10000 nM

CCN(CC)CCCCNc1nccc(-c2c(-c3ccc(F)c(Cl)c3)nn3cc(C(F)(F)F)ccc23)n1 [Example 93, N-{4-[2-(3-chloro-4-fluorophenyl)-6-(trifluoromethyl)pyrazolo-[1,5-a]pyridin-3-yl]pyrimidin-2-yl}-N-[4-(diethylamino)butyl]amine]
IC50 [1, 5]: 10 to 100 nM
IC50 ([2]; Table 9, read-out: JNK3 IC50): 100 to 1000 nM

CCN(CC)CCCCNc1nccc(-c2c(-c3cccc(Cl)c3)nn3cc(C(F)(F)F)ccc23)n1 [Example 94, N-{4-[2-(3-chlorophenyl)-6-(trifluoromethyl)pyrazolo[1,5-a]pyridin-3-yl]pyrimidin-2-yl}-N-[4-(diethylamino)butyl]amine]
IC50 [1, 5]: 10 to 100 nM
IC50 ([2]; Table 9, read-out: JNK3 IC50): 100 to 1000 nM

CCN(CC)CCNc1nccc(-c2c(-c3ccc(C(F)(F)F)cc3)nn3cc(C(F)(F)F)ccc23)n1 [Example 95, N-[2-(diethylamino)ethyl]-N-(4-{6-(trifluoromethyl)-2-[4-(trifluoromethyl)phenyl]pyrazolo[1,5-a]pyridin-3-yl}pyrimidin-2-yl)amine]
IC50 [1, 5]: 1000 to 10000 nM

CCN(CC)CCNc1nccc(-c2c(-c3cccc(Cl)c3)nn3cc(C(F)(F)F)ccc23)n1 [Example 96, N-{4-[2-(3-chlorophenyl)-6-(trifluoromethyl)pyrazolo[1,5-a]pyridin-3-yl]pyrimidin-2-yl}-N-[2-(diethylamino)ethyl]amine]
IC50 [1, 5]: 100 to 1000 nM

CCCN(CCC)CCNc1nccc(-c2c(-c3ccc(C(F)(F)F)cc3)nn3cc(C(F)(F)F)ccc23)n1 [Example 97, N-[2-(dipropylamino)ethyl]-N-(4-{6-(trifluoromethyl)-2-[4-(trifluoromethyl)phenyl]pyrazolo[1,5-a]pyridin-3-yl}pyrimidin-2-yl)amine]
IC50 [1, 5]: 1000 to 10000 nM

CCCN(CCC)CCNc1nccc(-c2c(-c3ccc(F)c(Cl)c3)nn3cc(C(F)(F)F)ccc23)n1 [Example 98, N-{4-[2-(3-chloro-4-fluorophenyl)-6-(trifluoromethyl)pyrazolo-[1,5-a]pyridin-3-yl]pyrimidin-2-yl}-N-[2-(dipropylamino)ethyl]amine]
IC50 [1, 5]: 100 to 1000 nM
IC50 ([2]; Table 9, read-out: JNK3 IC50): 1000 to 10000 nM

CCCN(CCC)CCNc1nccc(-c2c(-c3cccc(Cl)c3)nn3cc(C(F)(F)F)ccc23)n1 [Example 99, N-{4-[2-(3-chlorophenyl)-6-(trifluoromethyl)pyrazolo[1,5-a]pyridin-3-yl]pyrimidin-2-yl}-N-[2-(dipropylamino)ethyl]amine]
IC50 [1, 5]: 100 to 1000 nM
IC50 ([2]; Table 9, read-out: JNK3 IC50): 1000 to 10000 nM

CC(C)N(CCNc1nccc(-c2c(-c3ccc(F)c(Cl)c3)nn3cc(C(F)(F)F)ccc23)n1)C(C)C [Example 100, N-{4-[2-(3-chloro-4-fluorophenyl)-6-(trifluoromethyl)pyrazolo-[1,5-a]pyridin-3-yl]pyrimidin-2-yl}-N-[2-(diisopropylamino)ethyl]amine]
IC50 [1, 5]: 100 to 1000 nM
IC50 ([2]; Table 9, read-out: JNK3 IC50): 1000 to 10000 nM

FC(F)(F)c1ccc(-c2nn3cc(C(F)(F)F)ccc3c2-c2ccnc(NCCN3CCCC3)n2)cc1 [Example 103, N-(2-pyrrolidin-1-ylethyl)-N-(4-{6-(trifluoromethyl)-2-[4-(trifluoromethyl)phenyl]pyrazolo[1,5-a]pyridin-3-yl}pyrimidin-2-yl)amine]
IC50 [1, 5]: 1000 to 10000 nM

FC(F)(F)c1ccc(-c2nn3cc(C(F)(F)F)ccc3c2-c2ccnc(NCCN3CCCCC3)n2)cc1 [Example 108, N-(2-piperidin-1-ylethyl)-N-(4-{6-(trifluoromethyl)-2-[4-(trifluoromethyl)phenyl]pyrazolo[1,5-a]pyridin-3-yl}pyrimidin-2-yl)amine]
IC50 [1, 5]: 1000 to 10000 nM

FC(F)(F)c1ccc(-c2nn3cc(C(F)(F)F)ccc3c2-c2ccnc(NCCN3CCOCC3)n2)cc1 [Example 119, N-(2-morpholin-4-ylethyl)-N-(4-{6-(trifluoromethyl)-2-[4-(trifluoromethyl)phenyl]pyrazolo[1,5-a]pyridin-3-yl}pyrimidin-2-yl)amine]
IC50 [1, 5]: 1000 to 10000 nM

FC(F)(F)c1ccc(-c2nn3cc(C(F)(F)F)ccc3c2-c2ccnc(NCCCN3CCOCC3)n2)cc1 [Example 121, N-(3-morpholin-4-ylpropyl)-N-(4-{6-(trifluoromethyl)-2-[4-(trifluoromethyl)phenyl]pyrazolo[1,5-a]pyridin-3-yl}pyrimidin-2-yl)amine]
IC50 [1, 5]: 1000 to 10000 nM
